≈ marks a conversion by molar mass, not a printed value. Like-named read-outs stand apart in the source and are kept apart here.

From patent publication US10253002B2, “Compounds and methods of treating infections” (Neoculi Pty Ltd., priority 2013, dated 2019) come the findings set out here.

One experiment deals with MRSA. The experiment is described as follows: Broth microdilution MIC, Example 7 (NCL812 and analogues). The settings on record: for activity against MRSA among analogues: MIC testing, two MRSA strains; for MRSA: bioassay ranking. Type of experiment: cell-based, Staphylococcus aureus. A digest of the protocol:
(§1)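 CLSI broth microdilution against two MRSA and two VRE strains, tested in duplicate with a third run if results differed by more than one two-fold dilution.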
(In general: In broth dilution the organism is exposed to a series of concentrations in liquid medium.)

The subject of another experiment is VRE. The description is as above. It counts as cell-based, Enterococcus spp. The note with it: for activity against VRE among analogues: MIC testing, two VRE strains; for VRE: bioassay ranking. A digest of the protocol:
as §1

Experiment [1] can be described thus: Bioassay ranking of the analogues tested. The settings on record: M + R (MRSA and VRE combined).
For experiment [2], the system named is S. aureus isolates (HA-MRSA, CA-MRSA, methicillin-susceptible staphylococci). Kind of experiment: Kirby-Bauer disc diffusion resistotyping, Example 4. Type of experiment: cell-based, Staphylococcus aureus. As to the method: Antibiotic-susceptibility profiling of the isolate collection was undertaken using Kirby-Bauer disc diffusion, as recommended by the Clinical and Laboratory Standards Institute (CLSI) on Mueller-Hinton agar. Isolates were grown overnight on SBA at 37° C. Colonies were suspended in physiological saline. Turbidity was adjusted to a 0.5 McFarland standard and suspensions were spread over the medium. Antibiotic discs according to Table 9 below were transferred onto the inoculated medium and analysed after 24 h incubation at 37° C.
Background: In agar diffusion tests the substance spreads into inoculated agar from a disc or well.

A further experiment relates to S. pneumoniae isolates. The experiment is described as follows: Disk diffusion susceptibility (CLSI/EUCAST), Example 5. Type of experiment: cell-based, Streptococcus pneumoniae. As to the method:
Isolate susceptibility to 12 different antimicrobials (Table 16) was determined by CLSI and European Committee on Antimicrobial Susceptibility Testing (EUCAST) methods. Antimicrobials were selected based upon the CLSI and EUCAST guidelines. Standardised bacterial suspensions were spread onto MHSBA using a sterile cotton swab. Bacterial suspensions from of Streptococcus pneumoniae were standardised to an OD6O0 between 0.08 and 0.1 using a spectrophotometer and then diluted 1:20. Bacterial colonies were taken from an O/N horse blood agar plate. To ensure the purity of the 1:20 bacterial suspension, 50 μL was spread plated onto horse blood agar and incubated O/N at 37° C. with 5% CO2. The CFU was calculated and compared to the initial plate counts. Antibiotic disks (Purchased from Sigma Aldrich) were placed using a disk dispenser (Purchased from Oxoid) according to CLSI standards. MHSBA plates were incubated for 16 h-24 h at 37° C. in 5% CO2. Zones of complete inhibition were measured in triplicate to the nearest millimeter using a ruler on natural light-reflected growth, and the mode was represented as the diameter for each isolate. Pneumococcal isolates were categorised as sensitive, intermediate (I) or resistant (R) by CLSI standards and quality control (QC) ranges (Table 16).

The test system of experiment [3] is Staphylococcus pseudintermedius isolates (MSSP and MRSP). The experiment is described as follows: Disk diffusion and Epsilometer susceptibility testing, Example 6. It counts as cell-based. The settings on record: for MIC: Staphylococcus pseudintermedius.

On to `CC(C)c1ccc(/C=N/NC(=N)N/N=C/c2ccc(C(C)C)cc2)cc1.Cl` [NCL120], for which, in the experiment with MRSA, the “activity against MRSA among analogues” value is “greatest activity” and the MRSA worked out at 7 µg/mL. In the experiment with VRE, the “activity against VRE among analogues” value was “greatest activity” and the VRE was determined as 5 µg/mL. Besides, the “M + R” value in experiment [1] was 6 µg/mL.
As to `CCCc1ccc(C=NNC(=N)NN=Cc2ccc(CCC)cc2)cc1.Cl` [NCL121], in the experiment on MRSA, the “activity against MRSA among analogues” value is “greatest activity” and the MRSA came to 32 µg/mL. In the experiment on VRE, the “activity against VRE among analogues” value is reported as “greatest activity” and the VRE is 28 µg/mL. In addition, the “M + R” value in experiment [1] was 30 µg/mL.
`Cl.N=C(NN=Cc1ccc(F)c(F)c1)NN=Cc1ccc(F)c(F)c1` [NCL123]: in the experiment on MRSA, the “activity against MRSA among analogues” value is reported as “greatest activity” and the MRSA was 15 µg/mL. Besides, in the experiment with VRE, the “activity against VRE among analogues” value is on record as “greatest activity” and the VRE is 4 µg/mL. In experiment [1], the “M + R” value turned out to be 9.5 µg/mL.
For the molecule `CC(=NNC(=N)NN=C(C)c1ccccc1)c1ccccc1.Cl` [NCL143], in the experiment on MRSA, the “activity against MRSA among analogues” value is listed as “greatest activity” and the MRSA was 16 µg/mL. Besides, in the experiment on VRE, the “activity against VRE among analogues” value is given as “greatest activity” and the VRE was 8 µg/mL. Further, in experiment [1], the “M + R” value was 12 µg/mL.
Turning to `Cl.N=C(NN=Cc1ccc2[nH]ccc2c1)NN=Cc1ccc2[nH]ccc2c1` [NCL146], in the experiment with MRSA, the “activity against MRSA among analogues” value is “greatest activity” and the MRSA worked out at 12 µg/mL. In the experiment on VRE, the “activity against VRE among analogues” value was “greatest activity” and the VRE worked out at 16 µg/mL. In addition, the “M + R” value in experiment [1] came out at 14 µg/mL.
As usually defined, the MIC is the lowest concentration found to suppress growth. Turning to `Cc1onc(-c2ccccc2)c1C(=O)N[C@@H]1C(=O)N2[C@@H]1SC(C)(C)[C@@H]2C(=O)O` [Oxacillin], the “isolates resistant (Kirby-Bauer disc diffusion)” value in experiment [2] (CA-MRSA (n = 10)) is given as 10.00%; in experiment [2] (HA-MRSA (n = 10)), 80.00%; in experiment [2] (Methicillin-susceptible staphylococci (n = 10)) it was 0.00%. The “resistant isolates, number (percentage)” value is given as 2 (100%) in experiment [2] (Unclassified (n = 2), Overall); 4 (100%) in experiment [2] (mec gene complex A (n = 4), Overall); 3 (100%) in experiment [2] (mec gene complex A (n = 4), SCCmec type II); 1 (100%) in experiment [2] (mec gene complex A (n = 4), SCCmec type III); 2 (20%) in experiment [2] (mec gene complex B (n = 10), Overall); 1 (50%) in experiment [2] (mec gene complex B (n = 10), SCCmec type I). Further, the “resistant isolates, number (percentage)” value is 1 (12.5%) in experiment [2] (mec gene complex B (n = 10), SCCmec type IV); 1 (25%) in experiment [2] (mec gene complex C2 (n = 4), Overall); 1 (25%) in experiment [2] (mec gene complex C2 (n = 4), SCCmec type V). In experiment [2] (all isolates (n = 30)), the “Total isolates resistant (Kirby-Bauer disc diffusion)” value was 30.00%. Moreover, the “disk diffusion zone diameter” value with S. pneumoniae isolates (A66.1) came out at 28 mm; in the experiment on S. pneumoniae isolates (D39), 26 mm; in the experiment with S. pneumoniae isolates (EF3030), 18 mm; in the experiment on S. pneumoniae isolates (L82016) it was 29 mm; in the experiment with S. pneumoniae isolates (P9) it was 26 mm; in the experiment on S. pneumoniae isolates (P21), 28 mm. The “disk diffusion zone diameter” value in the experiment on S. pneumoniae isolates (TIGR4) is 26 mm; in the experiment with S. pneumoniae isolates (WCH16), 30 mm; in the experiment with S. pneumoniae isolates (WCH43), 26 mm; in the experiment with S. pneumoniae isolates (WCH46) it was 27 mm; with S. pneumoniae isolates (WCH57) it was 32 mm; in the experiment with S. pneumoniae isolates (WCH77), 28 mm. Moreover, the “disk diffusion zone diameter” value with S. pneumoniae isolates (WCH86) is 34 mm; in the experiment on S. pneumoniae isolates (WCH89), 29 mm; with S. pneumoniae isolates (WCH92), 25 mm; in the experiment with S. pneumoniae isolates (WCH137) it was 29 mm; in the experiment with S. pneumoniae isolates (WCH158), 28 mm; in the experiment with S. pneumoniae isolates (WCH184), 11 mm. The “disk diffusion zone diameter” value turned out to be 25 mm in the experiment on S. pneumoniae isolates (WCH211) and 28 mm in the experiment with S. pneumoniae isolates (WU2). In addition, the “disc diffusion zone, all MRSP isolates resistant” value in experiment [3] (13 MRSP isolates) is listed as no more than 17 mm. Moreover, the MIC in experiment [3] (13 MRSP isolates, read-out: E-test MIC, all MRSP isolates resistant) is no less than 0.5 µg/mL; in experiment [3] (isolate S1P1, read-out: Etest MIC), greater than 256 µg/mL; in experiment [3] (isolate S2P2, read-out: Etest MIC), greater than 256 µg/mL; in experiment [3] (isolate S3P3, read-out: Etest MIC) it was greater than 256 µg/mL; in experiment [3] (isolate S4P4, read-out: Etest MIC), 2 µg/mL (≈ 4.98 µM); in experiment [3] (isolate S5P5, read-out: Etest MIC), 4 µg/mL (≈ 9.96 µM). Further, the MIC in experiment [3] (isolate S6P6, read-out: Etest MIC) is greater than 256 µg/mL; in experiment [3] (isolate S7P7, read-out: Etest MIC), greater than 256 µg/mL; in experiment [3] (isolate S8P8, read-out: Etest MIC) it was greater than 256 µg/mL; in experiment [3] (isolate S9P9, read-out: Etest MIC), 4 µg/mL (≈ 9.96 µM); in experiment [3] (isolate S10P10, read-out: Etest MIC), greater than 256 µg/mL; in experiment [3] (isolate S11P11, read-out: Etest MIC), greater than 256 µg/mL. The MIC in experiment [3] (isolate S12P12, read-out: Etest MIC) was found to be 1.5 µg/mL (≈ 3.74 µM); in experiment [3] (isolate S13P13, read-out: Etest MIC) it was 0.125 µg/mL (≈ 0.311 µM); in experiment [3] (isolate S14P14, read-out: Etest MIC) it was 0.25 µg/mL (≈ 0.623 µM); in experiment [3] (isolate S15P15, read-out: Etest MIC) it was 0.25 µg/mL (≈ 0.623 µM); in experiment [3] (isolate S16P16, read-out: Etest MIC), 0.19 µg/mL (≈ 0.473 µM); in experiment [3] (isolate S17P17, read-out: Etest MIC), 0.25 µg/mL (≈ 0.623 µM). For the same molecule, the MIC in experiment [3] (isolate S18P18, read-out: Etest MIC) was determined as 0.25 µg/mL (≈ 0.623 µM); in experiment [3] (isolate S19P19, read-out: Etest MIC), 0.25 µg/mL (≈ 0.623 µM); in experiment [3] (isolate S20P20, read-out: Etest MIC), 0.25 µg/mL (≈ 0.623 µM); in experiment [3] (isolate S21P21, read-out: Etest MIC), 0.125 µg/mL (≈ 0.311 µM); in experiment [3] (isolate S22P22, read-out: Etest MIC), 0.25 µg/mL (≈ 0.623 µM); in experiment [3] (isolate S23P23, read-out: Etest MIC), 1.5 µg/mL (≈ 3.74 µM). The ZD in experiment [3] (isolate S1P1), in experiment [3] (isolate S2P2), in experiment [3] (isolate S3P3), in experiment [3] (isolate S4P4), in experiment [3] (isolate S5P5) and in experiment [3] (isolate S6P6) was 0 mm each time. In addition, the ZD in experiment [3] (isolate S7P7) is reported as 0 mm; in experiment [3] (isolate S8P8), 0 mm; in experiment [3] (isolate S9P9) it was 0 mm; in experiment [3] (isolate S10P10), 0 mm; in experiment [3] (isolate S11P11) it was 0 mm; in experiment [3] (isolate S12P12) it was 13 mm. Also, the ZD in experiment [3] (isolate S13P13) was 26 mm; in experiment [3] (isolate S14P14), 22 mm; in experiment [3] (isolate S15P15), 22 mm; in experiment [3] (isolate S16P16) it was 26 mm; in experiment [3] (isolate S17P17), 22 mm; in experiment [3] (isolate S18P18), 22 mm. Also, the ZD was 25 mm in experiment [3] (isolate S19P19); 23 mm in experiment [3] (isolate S20P20); 27 mm in experiment [3] (isolate S21P21); 21 mm in experiment [3] (isolate S22P22); 13 mm in experiment [3] (isolate S23P23). Also, the “ZD, Adl” value in experiment [3] (isolate S1P1), in experiment [3] (isolate S2P2), in experiment [3] (isolate S3P3), in experiment [3] (isolate S4P4), in experiment [3] (isolate S5P5) and in experiment [3] (isolate S6P6) was 0 mm each time. For the same molecule, the “ZD, Adl” value in experiment [3] (isolate S7P7) is recorded as 0 mm; in experiment [3] (isolate S8P8), 0 mm; in experiment [3] (isolate S9P9) it was 0 mm; in experiment [3] (isolate S10P10), 0 mm; in experiment [3] (isolate S11P11), 0 mm; in experiment [3] (isolate S12P12), 16 mm. In addition, the “ZD, Adl” value is 36 mm in experiment [3] (isolate S13P13); 29 mm in experiment [3] (isolate S14P14); 25 mm in experiment [3] (isolate S15P15); 34 mm in experiment [3] (isolate S16P16); 26 mm in experiment [3] (isolate S17P17); 30 mm in experiment [3] (isolate S18P18). The “ZD, Adl” value in experiment [3] (isolate S19P19) is reported as 32 mm; in experiment [3] (isolate S20P20), 30 mm; in experiment [3] (isolate S21P21), 37 mm; in experiment [3] (isolate S22P22), 26 mm; in experiment [3] (isolate S23P23) it was 14 mm.
